Data on one compound can be found in ChEMBL document CHEMBL5154693, “N-Methylpropargylamine-Conjugated Hydroxamic Acids as Dual Inhibitors of Monoamine Oxidase A and Histone Deacetylase for Glioma Treatment” (J Med Chem, 2022).

Activity calls are given as the source filed them. The rule behind the calls is not given here. Bounds are passed on as bounds.

Data set [1] in a line: Toxicity in mouse bearing intracranial tumor assessed as last day of survival at 10 mg/kg, ip in presence of SAHA for 10 days (Rvb=16 days). The format is organism-based. The note with it: in vivo, 240 h, time 10 day.
Data set [2] deals with Mus musculus. As to the kind of experiment: In vivo inhibition of MAO-A in mouse xenografted with mouse GL26 cells as decrease in MAO activity in brain at 10 mg/kg by radiometric analysis. The class given is functional, organism-based.
Data set [3] can be described thus: Cytotoxicity against mouse GL26 cells assessed as inhibition of cell growth incubated for 48 hrs by MTT assay. The note with it: GL26, 48 h. The format is functional, cell-based. Background: Tetrazolium dyes change colour on reduction, which living cells bring about.
Data set [4] can be described thus: Toxicity in mouse bearing intracranial tumor assessed as median survival time at 5 mg/kg, ip in presence of SAHA for 10 days (Rvb=13.8 days). Particulars: in vivo, 240 h, time 10 day. The class given is organism-based.
Data set [5] can be described thus: Toxicity in mouse bearing intracranial tumor assessed as last day of survival at 10 mg/kg, ip treatment started at 7 dpi (Rvb=19 days). The format is organism-based. The note with it: in vivo, 456 h.
Data set [6] has as its system U-251. Kind of data set: cells. The format is functional, cell-based. Particulars: Homo sapiens, U-251, 48 h.
Description: Cytotoxicity against human TMZ-sensitive U251 cells assessed as inhibition of cell growth incubated for 48 hrs by MTT assay
The nature of data set [7]: Toxicity in mouse bearing intracranial tumor assessed as median survival time at 10 mg/kg, ip in presence of SAHA for 10 days (Rvb=13.8 days). The class given is organism-based. Particulars: in vivo, 240 h, time 10 day.
Data set [8] is described as follows: Toxicity in mouse bearing intracranial tumor assessed as assessed as […] at 10 mg/kg, ip for 14 days treatment started at 5 days post-infection (Rvb=14 days). The class given is organism-based. Particulars: in vivo, 336 h, time 14 day.
Data set [9] relates to Mus musculus. As to the kind of experiment: In vivo inhibition of MAO-A in mouse xenografted with mouse GL26 assessed as decrease in MAO activity in tumor at 10 mg/kg by radiometric analysis. The format is functional, organism-based.
Data set [10] can be described thus: Toxicity in mouse bearing intracranial tumor assessed as assessed as median survival time at 10 mg/kg, ip treatment started at 7 dpi (Rvb=18.25 days). The class given is organism-based. The note with it: in vivo, 438 h.
Data set [11] in a line: Toxicity in mouse bearing intracranial tumor assessed as median survival time at 10 mg/kg, ip for 10 days (Rvb= 13.8 days). The format is organism-based. The note with it: in vivo, 240 h, time 10 day.
Data set [12] in a line: Toxicity in mouse bearing intracranial tumor assessed as last day of survival at 5 mg/kg, ip in presence of SAHA for 10 days (Rvb=16 days). Particulars: in vivo, 240 h, time 10 day. The format is organism-based.
In data set [13] the target is T1, Amine oxidase [flavin-containing] B (Mus musculus, UniProt Q8BW75).
T1 sequence (Q8BW75 whole entry): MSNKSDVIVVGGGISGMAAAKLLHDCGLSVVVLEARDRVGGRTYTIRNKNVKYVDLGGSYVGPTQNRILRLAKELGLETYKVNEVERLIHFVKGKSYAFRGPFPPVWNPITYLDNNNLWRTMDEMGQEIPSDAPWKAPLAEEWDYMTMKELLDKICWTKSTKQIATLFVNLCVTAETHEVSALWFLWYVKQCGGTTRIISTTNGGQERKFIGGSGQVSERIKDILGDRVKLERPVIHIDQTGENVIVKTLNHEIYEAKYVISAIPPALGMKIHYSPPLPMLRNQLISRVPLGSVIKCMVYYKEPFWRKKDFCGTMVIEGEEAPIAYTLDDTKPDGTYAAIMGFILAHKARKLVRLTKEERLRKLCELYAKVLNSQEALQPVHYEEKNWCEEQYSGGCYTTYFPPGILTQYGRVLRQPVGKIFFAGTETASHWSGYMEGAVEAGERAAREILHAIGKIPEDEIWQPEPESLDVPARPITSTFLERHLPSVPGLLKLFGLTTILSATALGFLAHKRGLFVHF
Kind of data set: Inhibition of wild type MAO-B in mouse brain using methyl ester luciferin as substrate at 1 uM pre-incubated for 15 mins followed by substrate addition measured after 1 hr by MAO-Glo assay relative to control. The class given is tissue-based.

Data set [14] can be described thus: Toxicity in mouse bearing intracranial tumor assessed as last day of survival at 10 mg/kg,ip for 10 days (Rvb=16 days). The format is organism-based. Particulars: in vivo, 240 h, time 10 day.
Data set [15] has as its system U-251. As to the kind of experiment: cells. The format is functional, cell-based. The note with it: Homo sapiens, U-251, 48 h. This is another data set of the same source.
Description: Cytotoxicity against human TMZ-resistant U251 cells assessed as inhibition of cell growth incubated for 48 hrs by MTT assay
Data set [16] in a line: Toxicity in mouse bearing intracranial tumor assessed as assessed as median survival time at 10 mg/kg, ip for 14 days treatment started at 5 days post-infection (Rvb=12.8 days). The class given is organism-based. The note with it: in vivo, 336 h, time 14 day.

The IC50 is the concentration that inhibits the measured activity by half. As a reminder, the inhibition is the relative decrease from the control value, in per cent. Low values mean a weak effect, high ones a strong effect. Take `C#CCN(C)CCCOc1ccc(Cl)cc1Cl` [CLORGILINE]: the Survival was 18 days in [1]; 19 days in data set [5]; 13.8 days in data set [11]; 14 days in [12]; 17 days in data set [14]; 15 days in data set [16]. Also, the outcome with Mus musculus [2] and in the data set on Mus musculus [9] was Active. The IC50 was determined as 169 µM in data set [3], 175 µM in the data set with U-251 [6] and 136 µM with U-251 [15]. The MST in data set [4] worked out at 13.8 days; in [7], 14.4 days; in data set [8], 11.75 days; in data set [10] it was 17.25 days. In data set [13], this compound returned an inhibition at 1 µM of less than 25%.
